{
  "source": "PubChem BioAssay AID256",
  "about": "(DTP/NCI, 2004)",
  "test_system": "CD2F1 mice, L1210 leukemia ip, survival T/C",
  "assay": "NCI In Vivo Anticancer Drug Screen. Data for tumor model L1210 Leukemia (intraperitoneal) in CD2F1 (CDF1) mice",
  "details": "higher = longer survival",
  "method_in_brief": "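Mice carrying a transplanted tumor received test compound or vehicle alone. The value is the measurement in the treated group divided by that in the vehicle-treated control group.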",
  "key": {"[1]": {"details": "endpoint: mean survival time, dose: 50.0 mg/kg/injection, schedule: Q01DX009 (ip), vehicle: saline with Tween-80"}, "[2]": {"details": "endpoint: mean survival time, dose: 100.0 mg/kg/injection, schedule: Q01DX009 (ip), vehicle: saline with Tween-80"}, "[3]": {"details": "endpoint: mean survival time, dose: 200.0 mg/kg/injection, schedule: Q01DX009 (ip), vehicle: saline with Tween-80"}, "[4]": {"details": "endpoint: mean survival time, dose: 100.0 mg/kg/injection, schedule: Q04DX003 (ip), vehicle: saline with Tween-80"}, "[5]": {"details": "endpoint: mean survival time, dose: 200.0 mg/kg/injection, schedule: Q04DX003 (ip), vehicle: saline with Tween-80"}, "[6]": {"details": "endpoint: mean survival time, dose: 400.0 mg/kg/injection, schedule: Q04DX003 (ip), vehicle: saline with Tween-80"}, "[7]": {"details": "endpoint: mean survival time, dose: 25.0 mg/kg/injection, schedule: Q01DX009 (ip), vehicle: saline with Tween-80"}},
  "note": "“And” between values parts separate entries of the source, which are not always exact repeats. Equal values may be shown once. Toxic doses and inconclusive results are not listed.",
  "data": [
    {"smiles": "CC(C)=NNS(=O)(=O)c1ccccc1", "values": [
      {"measurement": "T/C", "setting": "endpoint: mean survival time, dose: 12.5 mg/kg/injection, schedule: Q01DX005 (ip), vehicle: Klucel (hydroxypropylcellulose) (HPC)", "value": "88 % of control"},
      {"measurement": "T/C", "setting": "endpoint: mean survival time, dose: 25.0 mg/kg/injection, schedule: Q01DX005 (ip), vehicle: Klucel (hydroxypropylcellulose) (HPC)", "value": "96 % of control"},
      {"measurement": "T/C", "setting": "endpoint: mean survival time, dose: 50.0 mg/kg/injection, schedule: Q01DX005 (ip), vehicle: Klucel (hydroxypropylcellulose) (HPC)", "value": "96 % of control"},
      {"measurement": "T/C", "setting": "endpoint: mean survival time, dose: 100.0 mg/kg/injection, schedule: Q01DX005 (ip), vehicle: Klucel (hydroxypropylcellulose) (HPC)", "value": "93 % of control"}
    ]},
    {"smiles": "CCOP(=[Se])(OCC)[Se][Se][Se]P(=[Se])(OCC)OCC", "values": [
      {"measurement": "T/C", "setting": "endpoint: mean survival time, dose: 100.0 mg/kg/injection, schedule: Q01DX001 (ip), vehicle: saline", "value": "108 % of control"}
    ]},
    {"smiles": "Clc1ccc(CCc2ccc(Cl)cc2)cc1", "values": [
      {"measurement": "T/C", "setting": "[1]", "value": "102 % of control"},
      {"measurement": "T/C", "setting": "[2]", "value": "98 % of control"},
      {"measurement": "T/C", "setting": "[3]", "value": "102 % of control"}
    ]},
    {"smiles": "CC1=CS(=O)(=O)CC(=O)N1", "values": [
      {"measurement": "T/C", "setting": "[4]", "value": "103 % of control"},
      {"measurement": "T/C", "setting": "[5]", "value": "98 % of control"},
      {"measurement": "T/C", "setting": "[6]", "value": "95 % of control"}
    ]},
    {"smiles": "NC(CC(=O)CCl)C(=O)O", "note": "(stereo not drawn)", "values": [
      {"measurement": "T/C", "setting": "endpoint: mean survival time, dose: 6.25 mg/kg/injection, schedule: Q04DX003 (ip), vehicle: saline", "value": "120 % of control"},
      {"measurement": "T/C", "setting": "endpoint: mean survival time, dose: 37.5 mg/kg/injection, schedule: Q04DX003 (ip), vehicle: saline", "value": "109 % of control"},
      {"measurement": "T/C", "setting": "endpoint: median survival time, dose: 10.0 mg/kg/injection, schedule: Q01DX001 (ip), vehicle: saline", "value": "121 % of control"},
      {"measurement": "T/C", "setting": "endpoint: median survival time, dose: 20.0 mg/kg/injection, schedule: Q01DX001 (ip), vehicle: saline", "value": "121 % of control"},
      {"measurement": "T/C", "setting": "endpoint: median survival time, dose: 30.0 mg/kg/injection, schedule: Q01DX009 (ip), vehicle: saline", "value": "122 % of control"},
      {"measurement": "T/C", "setting": "endpoint: median survival time, dose: 40.0 mg/kg/injection, schedule: Q01DX001 (ip), vehicle: saline", "value": "122 % of control"},
      {"measurement": "T/C", "setting": "endpoint: median survival time, dose: 60.0 mg/kg/injection, schedule: Q01DX009 (ip), vehicle: saline", "value": "35 % of control"}
    ]},
    {"smiles": "Oc1ccccc1C=Nc1ccc(N=Cc2ccccc2O)cc1", "values": [
      {"measurement": "T/C", "setting": "[4]", "value": "88 % of control"},
      {"measurement": "T/C", "setting": "[5]", "value": "91 % of control"},
      {"measurement": "T/C", "setting": "[6]", "value": "100 % of control"}
    ]},
    {"smiles": "c1ccc2c(c1)[nH]c1c2cc[n+]2cc3c(cc12)CCCC3", "values": [
      {"measurement": "T/C", "setting": "endpoint: mean survival time, dose: 5.0 mg/kg/injection, schedule: Q01DX001 (ip), vehicle: saline", "value": "100 % of control"},
      {"measurement": "T/C", "setting": "endpoint: mean survival time, dose: 10.0 mg/kg/injection, schedule: Q01DX001 (ip), vehicle: saline", "value": "101 % of control"},
      {"measurement": "T/C", "setting": "endpoint: mean survival time, dose: 20.0 mg/kg/injection, schedule: Q01DX001 (ip), vehicle: saline", "value": "106 % of control"},
      {"measurement": "T/C", "setting": "endpoint: mean survival time, dose: 40.0 mg/kg/injection, schedule: Q01DX001 (ip), vehicle: saline", "value": "109 % of control"}
    ]},
    {"smiles": "Nc1cccc(C(=O)O)c1C(=O)O", "values": [
      {"measurement": "T/C", "setting": "[7]", "value": "93 % of control"}
    ]},
    {"smiles": "O=C1CCC2(Cc3ccccc3C2=O)O1", "note": "(stereo not drawn)", "values": [
      {"measurement": "T/C", "setting": "endpoint: mean survival time, dose: 75.0 mg/kg/injection, schedule: Q01DX001 (ip), vehicle: saline", "value": "94 % of control"},
      {"measurement": "T/C", "setting": "endpoint: mean survival time, dose: 150.0 mg/kg/injection, schedule: Q01DX001 (ip), vehicle: saline", "value": "96 % of control"},
      {"measurement": "T/C", "setting": "endpoint: mean survival time, dose: 300.0 mg/kg/injection, schedule: Q01DX001 (ip), vehicle: saline", "value": "94 % of control"}
    ]},
    {"smiles": "O=C(COc1ccccc1-c1ccccc1)Nc1ccccc1-c1ccccc1", "values": [
      {"measurement": "T/C", "setting": "endpoint: mean survival time, dose: 25.0 mg/kg/injection, schedule: Q04DX002 (ip), vehicle: saline with Tween-80", "value": "98 % of control"},
      {"measurement": "T/C", "setting": "endpoint: mean survival time, dose: 50.0 mg/kg/injection, schedule: Q04DX002 (ip), vehicle: saline with Tween-80", "value": "98 % of control"},
      {"measurement": "T/C", "setting": "endpoint: mean survival time, dose: 100.0 mg/kg/injection, schedule: Q04DX002 (ip), vehicle: saline with Tween-80", "value": "94 % of control"}
    ]},
    {"smiles": "COC(=O)C1=CCN(C)CC1", "values": [
      {"measurement": "T/C", "setting": "endpoint: mean survival time, dose: 100.0 mg/kg/injection, schedule: Q04DX003 (ip), vehicle: saline", "value": "97 % of control"},
      {"measurement": "T/C", "setting": "endpoint: mean survival time, dose: 200.0 mg/kg/injection, schedule: Q04DX003 (ip), vehicle: saline", "value": "96 % of control"},
      {"measurement": "T/C", "setting": "endpoint: mean survival time, dose: 400.0 mg/kg/injection, schedule: Q04DX003 (ip), vehicle: saline", "value": "90 % of control"}
    ]},
    {"smiles": "C1=CSCCC1", "values": [
      {"measurement": "T/C", "setting": "endpoint: mean survival time, dose: 25.0 mg/kg/injection, schedule: Q04DX002 (ip), vehicle: saline + alcohol", "value": "102 % of control"},
      {"measurement": "T/C", "setting": "endpoint: mean survival time, dose: 50.0 mg/kg/injection, schedule: Q04DX002 (ip), vehicle: saline + alcohol", "value": "94 % of control"},
      {"measurement": "T/C", "setting": "endpoint: mean survival time, dose: 100.0 mg/kg/injection, schedule: Q04DX002 (ip), vehicle: saline + alcohol", "value": "90 % of control"}
    ]},
    {"smiles": "Nc1cc2c3c(cccc3c1)C(=O)N(CCN1CCCC1)C2=O", "values": [
      {"measurement": "T/C", "setting": "endpoint: mean survival time, dose: 3.12 mg/kg/injection, schedule: Q01DX009 (ip), vehicle: saline with Tween-80", "value": "96 % of control and 102 % of control"},
      {"measurement": "T/C", "setting": "endpoint: mean survival time, dose: 6.25 mg/kg/injection, schedule: Q01DX009 (ip), vehicle: saline with Tween-80", "value": "101 % of control and 107 % of control"},
      {"measurement": "T/C", "setting": "endpoint: mean survival time, dose: 12.5 mg/kg/injection, schedule: Q01DX009 (ip), vehicle: saline with Tween-80", "value": "117 % of control and 110 % of control"},
      {"measurement": "T/C", "setting": "[7]", "value": "113 % of control and 119 % of control and 111 % of control"},
      {"measurement": "T/C", "setting": "[1]", "value": "175 % of control"},
      {"measurement": "T/C", "setting": "[2]", "value": "86 % of control"},
      {"measurement": "T/C", "setting": "[3]", "value": "91 % of control"}
    ]},
    {"smiles": "O=C1OC(=O)C2C3CC(C4OC34)C12", "note": "(stereo not drawn)", "values": [
      {"measurement": "T/C", "setting": "[2]", "value": "103 % of control"},
      {"measurement": "T/C", "setting": "[3]", "value": "97 % of control"},
      {"measurement": "T/C", "setting": "endpoint: mean survival time, dose: 400.0 mg/kg/injection, schedule: Q01DX009 (ip), vehicle: saline with Tween-80", "value": "87 % of control"}
    ]}
  ]
}
